Measurements published in patent EP0044527A1, “Substituted derivatives of benzyl triesters of cyclic adenosin-3',5'-phosphate, method for their preparation and pharmaceutical compositions containing them” (priority 1980, dated 1982).
Read-outs that look alike come from different tables or passages of the source.

Columns and labels:
[1] = system: Papillarmuskeln aus dem rechten Ventrikel des Meerschweinchenherzens; assay: Positive inotropic effect on isolated papillary muscle, isometric force, with or without phosphodiesterase inhibitor; type: cell-based, Meerschweinchen; settings: for minimal effective concentration: read-out: Schwellenkonz.
Protocol: Zur Bestimmung positiv inotroper Wirkungen wurden Papillarmuskeln aus dem rechten Ventrikel des Meerschweinchenherzens verwendet. Die adrenergen Nervenendigungen waren frei von Noradrenalin (Katecholamin-Entspeicherung durch intraperitoneale Injektion von 5 mg/kg Reserpin 24 Stunden vor Präparation der Tiere). Die Aufhängung der Muskeln erfolgte an einem induktiven Kraftaufnehmer in einer mit Sauerstoff gesättigten physiologischen Nährlösung (Volumen 50 ml). Die Kraftregistrierung erfolgte isometrisch, Kontraktionskurven wurden mittels eines Tintenschreibers aufgezeichnet und dann analysiert. Vor Zugabe der Testsubstanz wurden die Muskeln bei konstanter Reizung (Frequenz 0,2 Hz, Reizdauer 1 ms) bis zum Erreichen eines stationären Zustands ("steady state") der Kraft in der Nährlösung äquilibriert. Die Konzentration der Testsubstanz wurde dann erhöht, wenn die Kraft innerhalb von 10 min nicht weiter zunahm.
In der folgenden Tabelle II sind die Konzentrationen der einzelnen Testsubstanzen aufgetragen, bei denen der positiv inotrope Effekt gerade erkennbar war (Schwellenkonzentration) oder 50 % der maximalen Kraftzunahme erreichte (EC50). Diese Werte wurden im unteren Teil der Tabelle denen bereits bekannter Testsubstanzen gegenübergestellt. Weiterhin werden Schwellenkonzentrationen und EC50-Werte für die aufgeführten Testsubstanzen in Anwesenheit des Phosphodiesterase-Hemmstoffs 1-Methyl-3-isobutylxanthin (IBMX) (2 x 10^-5 Mol/l) angegeben. Es resultiert eine Verschiebung zu 30 - 40-fach niedrigeren Konzentrationen im Vergleich zu den Werten ohne Phophodiesterase-Hemmstoff. Ein ähnlicher Synergismus wurde auch mit Papaverin (1 x 10^-5 Mol/l) und mit Theophyllin (3 x 10-^4 Mol/1) beobachtet.

[2] = Partition coefficient octanol/buffer pH 7.4 (lg P); type: physicochemical; settings: Octanol/Puffer
Excerpt: Weitere physikalische Daten finden sich in der folgenden Tabelle I, die auch zusätzliche beispielhaft hergestellte erfindungsgemäße Verbindungen und deren physikalische Daten enthält. Dabei bedeutet P den Verteilungskoeffizienten Octanol/Puffer, pH 7,4: P = [formula]

[3] = system: Trachealspangen-Kette des Meerschweinchens; assay: Relaxation of spontaneously contracted tracheal ring chain in vitro, relative to (-)isoprenaline maximum; type: cell-based, Meerschweinchen; settings: for EC50: Cavia porcellus, Dosis der halbmaximal möglichen Relaxation, Relaxation relative to (-)Isoprenalin 10^-6 Mol/l, read-out: ED50 (the source's name); for Relative Wirkungsstärke (Theophyllin = 1,00): im Vergleich zu Theophyllin
Protocol: Weiterhin wurde die relaxierende Wirkung erfindungsgemäßer Verbindungen auf die Trachealspangen-Kette des Meerschweinchens in vitro geprüft: • Vier parallele, aus jeweils 6 Einzelringen bestehende Trachealspangen-Ketten des Meerschweinchens (♂ und $, 430 - 600 g) im Organbad (5 ml, Krebs-Henseleit-Lösung mit Zusatz von Phentolamin (10^-5 Mol/l, 37°C, Vorspannung der Organe 2 g, Begasung mit Carbogen) entwickeln nach etwa 20 bis 30 Minuten eine stabile, tonische Spontankontraktur. An diesen dauerkontrahierten Organen kann unter isometrischen Meßbedingungen durch Applikation der Prüfsubstanz in kumulativhalblogarithmisch ansteigender Konzentration (z.B. 1x10-^6 + 2x-10^-6 + 7x10^-6 + 2x10^-5 usw. Mol/l) eine Relaxation herbeigeführt werden, wobei nach jeder Einzeldosis der Testsubstanz eine konstante Relaxations-Antwort abgewartet wird, bevor die nächst höhere Konzentration appliziert wird. Ober einen Zeitraum von 20 bis 30 Minuten wird somit eine vollständige Dosis-Wirkungskurve der Testsubstanz erhalten. Die jeweilige Relaxation wird als Prozentbruchteil der durch Gabe von (-)Isoprenalin (10^-6 Mol/1) maximal erreichbaren Relaxation ausgedrückt.
In Tabelle IV sind die ED50 (Dosis der halbmaximal möglichen Relaxation) und die relative Wirkungsstärke im Vergleich zu Theophyllin für erfindungsgemäße Verbindungen angegeben.

[4] = system: isolierte Trachealstreifen des Meerschweinchens; assay: Relaxation of isolated tracheal strips (smooth muscle of the respiratory tract); type: cell-based, Meerschweinchen; settings: Cavia porcellus, read-out: Abnahme der Muskelspannung (T) in % des Kontrollwertes
Excerpt: Zur Bestimmung der erschlaffenden Wirkung von 8-CH3S-cAMP-OCH2C6H5 (Verbindung 2) auf die glatte Muskulatur des Respirationstraktes wurden isolierte Trachealstreifen des Meerschweinchens verwendet. Aufhängung der Präparate erfolgte wie bereits beschrieben. Nach Vorgabe einer geeigneten Testspannung (0,8 g) wurde die erschlaffende Wirkung der Testsubstanz in Abhängigkeit von der Konzentration getestet. Nach Auswaschen der Testsubstanz wurde der Versuch mit einem bereits bekannten cAMP-Derivat (Dibutyryl-cAMP, Vergleichsverbindung 1) wiederholt.

[5] = system: isoliertes Meerschweinchen-Myokard; settings: Stand der Technik; cited from earlier work
[6] = 50 % der maximalen Kraftzunahme, in Anwesenheit von IBMX (2 x 10^-5 Mol/l), read-out: EC50 + 20 µMol IBMX
[7] = 50 % der maximalen Kraftzunahme, ohne IBMX, read-out: EC50
[8] = positiv inotroper Effekt gerade erkennbar, in Anwesenheit von IBMX (2 x 10^-5 Mol/l)
[9] = positiv inotroper Effekt gerade erkennbar, ohne IBMX
[10] = pH 7, Diastereomerengemisch, pH 7,4, read-out: lg P Gemisch
[11] = pH 7, Vergleichsverbindungen, pH 7,4, read-out: lg P - Werte
[12] = pH 7, Konfig. ax, pH 7,4, read-out: lg P
[13] = pH 7, Konfig. äq, pH 7,4, read-out: lg P

Row | EC50 [1, 6] [µM] | EC50 [1, 7] [µM] | logD [2, 10] | SMILES | Schwellenkonz. + 20 µMol IBMX [1, 8] [mol/L] | minimal effective concentration [1, 9] [µM] | logD [2, 12] | logD [2, 13] | other results
1 | 20 | 40 | 1.97 | Nc1ncnc2c1nc(NCc1ccccc1)n2[C@@H]1O[C@@H]2COP(=O)(OCc3ccccc3)O[C@H]2[C@H]1O (some centres unmarked) [Verbindung 6, 8-Benzylamino-adenosin-3^1,5^1-monophosphorsäurebenzylester] | 5e-06 | 10 | – | – | –
2 | 0.3 | 2 | 2.24 | Nc1ncnc2c1nc(Sc1ccc(Cl)cc1)n2[C@@H]1O[C@@H]2COP(=O)(OCc3ccccc3)O[C@H]2[C@H]1O (some centres unmarked) [Verbindung 5, 8-(4-Chlor-phenylthio)-adenosin-3',5'-monophosphorsäurebenzylester] | 3e-08 | 0.1 | – | – | EC50 [3]: 38 µM; Relative Wirkungsstärke (Theophyllin = 1,00) [3]: 3,4
3 | 0.6 | 20 | 1.92 | Nc1ncnc2c1nc(SCc1ccccc1)n2[C@@H]1O[C@@H]2COP(=O)(OCc3ccccc3)O[C@H]2[C@H]1O (some centres unmarked) [Verbindung 3, 8-Benzylthioadenosin-3',5'-monophosphorsäurebenzyltriester] | 1e-07 | 10 | 1.96 | 1.88 | –
4 | – | – | 2.29 | CN(Cc1ccccc1)c1nc2c(N)ncnc2n1[C@@H]1O[C@@H]2COP(=O)(OCc3ccccc3)O[C@H]2[C@H]1O (some centres unmarked) [Verbindung 7, 8-N-Benzyl-N-methylamino-adenosin-3',5'-monophosphorsäurebenzylester] | – | – | – | – | –
5 | 1.5 | 10 | 1.58 | Nc1ncnc2c1nc(Br)n2[C@@H]1O[C@@H]2COP(=O)(OCc3ccccc3)O[C@H]2[C@H]1O (some centres unmarked) [Verbindung 1, 8-Brom-adenosin-3',5'-monophosphorsäurebenzylester] | 3e-07 | 3 | 1.61 | 1.54 | EC50 [3]: 7 µM; Relative Wirkungsstärke (Theophyllin = 1,00) [3]: 18,5

Further lines, the molecule ahead of its results:

Row | SMILES | EC50 [1, 6] [µM] | EC50 [1, 7] [µM] | logD [2, 10] | Schwellenkonz. + 20 µMol IBMX [1, 8] [mol/L] | minimal effective concentration [1, 9] [µM] | logD [2, 12] | logD [2, 13] | other results
6 | CCCC(=O)Nc1ncnc2c1ncn2[C@@H]1O[C@@H]2COP(=O)(O)O[C@H]2[C@H]1OC(=O)CCC [Vergleichs-verbindung 1, Dibutyryl-cAMP, reference compound] | 300 | 1000 | – | 0.0001 | 300 | – | – | inhibition at 1000 µM ([4]; 1 x 10^-3 Mol/l): 75%; inhibition at 100 µM ([4]; 1 x 10^-4 Mol/l): 8%; inhibition at 300 µM ([4]; 3 x 10^-4 Mol/l): 16%; inotrope Wirkung (Nebenwirkung) [5]: anfangs negativ inotrope Wirkungen; logD [2, 11]: -1.1
7 | Nc1ncnc2c1ncn2[C@@H]1O[C@@H]2COP(=O)(OCc3ccccc3)O[C@H]2[C@H]1O (some centres unmarked) [compound 3, Adenosin-3',5'-phosphorsäurebenzylester, reference compound] | 60 | 250 | – | 1e-05 | 100 | – | – | logD [2, 11]: 1.1
8 | CSc1nc2c(N)ncnc2n1[C@@H]1O[C@@H]2COP(=O)(OCc3ccccc3)O[C@H]2[C@H]1O (some centres unmarked) [Verbindung 2, 8-Methylthio-adenosin-3',5^1-monophosphorsäurebenzylester] | – | – | 1.62 | 1e-07 | – | 1.55 | 1.7 | inhibition at 1 µM [4]: 20%; inhibition at 3 µM [4]: 85%; inhibition at 10 µM [4]: 100%; inhibition at 30 µM [4]: 100%; EC50 [1]: 10 µM; EC50 ([1]; read-out: EC50 + 20 µMol IBMX): 0.45 µM; minimal effective concentration [1]: 3 µM
9 | Nc1ncnc2c1nc([Se]Cc1ccccc1)n2[C@@H]1O[C@@H]2COP(=O)(OCc3ccccc3)O[C@H]2[C@H]1O (some centres unmarked) [Verbindung 4, 8-Benzylseleno-adenosin-3',5'-monophosphorsäurebenzylester] | – | – | 1.67 | 1e-07 | – | 1.7 | 1.64 | EC50 [1]: 10 µM; EC50 ([1]; read-out: EC50 + 20 µMol IBMX): 0.55 µM; minimal effective concentration [1]: 3 µM
10 | Nc1ncnc2c1nc(SCc1ccccc1)n2[C@@H]1O[C@@H]2COP(=O)(O)O[C@H]2[C@H]1O [compound 2, 8-Benzylthioadenosin-3',5'-phosphorsäure, reference compound] | 150 | 800 | – | 1e-05 | 100 | – | – | logD [2, 11]: -1.15
11 | Cn1c(=O)c2[nH]cnc2n(C)c1=O [Theophyllin, reference compound] | – | – | – | – | – | – | – | EC50 [3]: 130 µM; Relative Wirkungsstärke (Theophyllin = 1,00) [3]: 1,00
